Source: patent US20050084468A1, “Antimicrobial cleaning composition” (Colgate-Palmolive Company, priority 2003, published 2005)

What was measured:
Type in all cases: cell-based
[1] = tested on: wild germs from hand's volunteers (mainly Staphylococcus epidermitis); assay: Lasting antibacterial protection, PHMB-Mucin in surfactant solutions; conditions: surfactant solution alone (NO PHMB-Mucin), 2.5% AI in water
Description: (§1) Ceramic tiles are treated with 200 μl of the solutions to test; untreated tiles are used as reference. After overnight drying of the treatment, tiles are rinsed with 2×10 ml deionized water and let dry for 1 hour. Tiles are then inoculated in the horizontal position for 5 hours with 200 μl of a suspension of wild germs from hand's volunteers (mainly Staphylococcus epidermitis). After rinsing of the surface with 2×10 ml sterile tap water to remove the germs source, the contamination of the surface is determined by direct imprint with Tryptic Soy Agar plates (a nutritive gelified support). Colony forming units (=cfu=microorganisms) are counted after 48 hours incubation at RT.
PHMB-Mucin in Surfactant Solutions
Test methodology is described under example II. We considered nonionic surfactants (Neodols), anionics (SLS, PS), and amphoteric (CAPB) at 2.5% Al in water. The mixture is Neodol 91-8 1.25%, Neodol 91-5 0.25%, CAPB 0.45%, PS 0.5%.

[2] = tested on: wild germs from hand's volunteers (mainly Staphylococcus epidermitis); assay: Lasting antibacterial protection of the surface (treated ceramic tiles, imprint cfu count); conditions: tiles rinsed 2×10 ml deionized water; inoculated 5 hours; counted after 48 hours at RT
Description: as §1, with “Measure” for “Ceramic tiles are treated with 200 μl”, “Lasting Antibacterial Protection of the Surface […]” for “solutions to test; untreated tiles are used as reference.”, “[…]).” for “epidermitis).”

[3] = tested on: wild germs from hand's volunteers (mainly Staphylococcus epidermitis); assay: Lasting antibacterial protection, stronger rinsing with water
Description: as §1
Stronger Rinsing with Water:
Methodology is the same as described under example II but rinsing is operated either with 2×10 ml or 5×10 ml water or with a tap water shower head during 30 sec.

[4] = rinsing tap water shower head 30 sec.

CCCCCCCCCCCCOS(=O)(=O)[O-].[Na+] [SLS, sodium lauryl sulfate]
cfu/tile - average on 3 replicates ([1]; series of PHMB 0.06%-Mucin 0.03%): 277 ± 34 cfu/tile
cfu/tile - average on 3 replicates ([1]; series of PHMB 0.09%-Mucin 0.05%): 77 ± 25 cfu/tile

mucin [Mucin 0.1%]
Cfu/ceramic tile Average on 3 replicates [2]: 82 ± 15 Cfu/ceramic tile
cfu/ceramic tile average on 3 replicates ([3]; rinsing 2 × 10 ml water): 50 ± 19 cfu/ceramic tile
cfu/ceramic tile average on 3 replicates ([3]; rinsing 5 × 10 ml water): 129 ± 36 cfu/ceramic tile
cfu/ceramic tile average on 3 replicates [3, 4]: 149 ± 5 cfu/ceramic tile

mucin [Mucin 0.03%]
Cfu/ceramic tile Average on 3 replicates [2]: 110 ± 18 Cfu/ceramic tile
cfu/ceramic tile average on 3 replicates ([3]; rinsing 2 × 10 ml water): 37 ± 3 cfu/ceramic tile
cfu/ceramic tile average on 3 replicates ([3]; rinsing 5 × 10 ml water): 118 ± 43 cfu/ceramic tile
cfu/ceramic tile average on 3 replicates [3, 4]: 145 ± 8 cfu/ceramic tile

mucin [Mucin 0.05%]
Cfu/ceramic tile Average on 3 replicates [2]: 68 ± 12 Cfu/ceramic tile
cfu/ceramic tile average on 3 replicates ([3]; rinsing 2 × 10 ml water): 26 ± 7 cfu/ceramic tile
cfu/ceramic tile average on 3 replicates ([3]; rinsing 5 × 10 ml water): 98 ± 23 cfu/ceramic tile
cfu/ceramic tile average on 3 replicates [3, 4]: 72 ± 17 cfu/ceramic tile
